Laboratory results published in PMC5923390, “Further New Diterpenoids as PTP1B Inhibitors from the Xisha Soft Coral Sinularia polydactyla” (Marine Drugs, 2018).
Values joined by “and” are separate entries in the source; they are usually repeats but may differ in a detail not shown here. Equal entries are not always repeated.

Target: T1, recombinant PTP1B catalytic domain (Homo sapiens, UniProt P18031)
T1 construct: Recombinant PTP1B catalytic domain was expressed and purified according to a previous report; made in house
T1 sequence (P18031 3-277 limits assumed): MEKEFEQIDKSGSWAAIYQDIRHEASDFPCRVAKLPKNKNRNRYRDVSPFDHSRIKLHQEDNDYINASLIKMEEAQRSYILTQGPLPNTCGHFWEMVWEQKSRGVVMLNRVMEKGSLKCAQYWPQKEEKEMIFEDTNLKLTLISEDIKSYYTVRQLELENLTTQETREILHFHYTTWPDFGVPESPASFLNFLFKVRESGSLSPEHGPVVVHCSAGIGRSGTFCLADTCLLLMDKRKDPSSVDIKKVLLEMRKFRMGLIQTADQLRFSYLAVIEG
Experiment: PTP1B inhibitory activity assay (pNPP hydrolysis)
Assay type: biochemical
Details: for PTP1B inhibitory activity (in words): in vitro, pNPP hydrolysis; for IC50: pNPP 2 mmol/L, 30 nmol/L recombinant PTP1B, MOPs pH 6.5, 30 °C, absorbance 405 nm, read-out: IC50 against PTP1B
Description: Recombinant PTP1B catalytic domain was expressed and purified according to a previous report. The enzymatic activities of the PTP1B catalytic domain were determined at 30 °C by monitoring the hydrolysis of pNPP. The dephosphorylation of pNPP generated product pNP, which was monitored at an absorbance of 405 nm by the EnVision multi label plate reader (Perkin Elmer Life Sciences, Boston, MA). In an atypical 100 µL assay mixture containing 50 mmol/L 3-[N-morpholino] propanesulfonic acid (MOPs), pH 6.5, 2 mmol/L pNPP, and 30 nmol/L recombinant PTP1B, activities were continuously monitored and the initial rate of hydrolysis was determined using the early linear region of the enzymatic reaction kinetic curve. The IC50 was calculated with Prism 4 software (Graphpad, San Diego, CA).

| PTP1B inhibitory activity (in words) | IC50 | SMILES |
| --- | --- | --- |
| inactive | – | C=C[C@@]1(C)CC[C@H](/C(C)=C/C=C/C(C)(C)OC)C[C@@H]1C(=C)C [Compound 5, lobatetraene] |
| inactive | – | C=C[C@@]1(C)CC[C@H](/C(C)=C/C=C/C(C)(C)O)C[C@@H]1C(=C)C [Compound 6, fuscol] |
| – | 75.5 µM and 72.4 µM | CC1=CC[C@@H](O)[C@@]2(C)CC[C@H](/C(C)=C/C=C/C(C)(C)O)C[C@H]12 [Compound 7] |
| promising inhibitory activity | 63.9 µM | CC(=CC=CC(C)(C)O)C1CCC2(C)CCC=C(C)C2C1 (centres unmarked) [Compound 8, sinupol] |
| promising inhibitory activity | 51.8 µM | C=C1CCC=C(C)C(OC(C)=O)C(OC(C)=O)C(C(C)C)=CC2C(C)=CCC12 (centres unmarked) [Compound 9, sinulacetate] |
| inactive | – | CC1=CC=C(C(C)C)C(O)C(O)C(C)=CCCC(C)=CCC1 (centres unmarked) [Compound 10, sarcophytol B] |
